IC50 data for 24 compounds are collected here from US20250320224A1 (DOMAIN THERAPEUTICS, priority 2022, published 2025).

The structures appear in SMILES notation. Structures can show the parent of a compound that is named as a salt.

For orientation: IC50 means the concentration that inhibits the measured activity by half.

This test has as its target T1, human PAR-2 (hPAR-2) receptor (Homo sapiens, UniProt P55085).
T1 construct: expressed in HEK-293 cells in an endogenous manner; endogenous in cells; host or cells: HEK-293
T1 sequence (P55085 26-397): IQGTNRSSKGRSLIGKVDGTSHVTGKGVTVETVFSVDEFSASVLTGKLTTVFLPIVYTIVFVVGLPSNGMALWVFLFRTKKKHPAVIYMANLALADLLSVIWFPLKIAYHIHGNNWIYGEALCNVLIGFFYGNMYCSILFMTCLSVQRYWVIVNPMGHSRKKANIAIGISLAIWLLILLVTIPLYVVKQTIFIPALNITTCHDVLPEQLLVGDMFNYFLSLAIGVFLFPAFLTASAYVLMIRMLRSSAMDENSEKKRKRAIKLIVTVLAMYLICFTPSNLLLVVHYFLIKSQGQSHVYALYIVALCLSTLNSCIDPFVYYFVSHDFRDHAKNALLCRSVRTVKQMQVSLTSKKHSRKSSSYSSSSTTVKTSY
Nature of the test: In vitro human PAR-2 functional antagonist activity using calcium assays. As to conditions: hPAR-2 endogenously expressed in HEK-293 cells; stimulated by 2-Furoyl-LIGRLO-NH2 peptide; Fluo4AM intracellular calcium, FLIPR Tetra. Type of test: cell-based. In outline: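 HEK-293 cells with endogenous hPAR-2 were loaded with Fluo4AM and read for intracellular Ca2+ on FLIPR. After 10 min with compound alone, cells were stimulated with 2-Furoyl-LIGRLO-NH2 at the concentration giving 80% of maximal response. Inhibition was then recorded over 5 min relative to buffer and agonist-only signals.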
On the technique in general: A change in cytosolic calcium serves as a functional read-out for many receptors and channels.
As to `Cc1cc(N2CCN(C(=O)c3ccc4c(n3)C(C)(C)CN4C3CCC(C(N)=O)CC3)C(C)(C)C2)nc(C)c1C(=O)O` (stereo not drawn) [Example 162, 6-(4-(1-(4-carbamoylcyclohexyl)-3,3-dimethyl-2,3-dihydro-1H-pyrrolo[3,2-b]pyridine-5-carbonyl)-3,3-dimethylpiperazin-1-yl)-2,4-dimethylnicotinic acid], the IC50 was 500 to 10000 nM. Next, `CC1(C)CN(c2ccc(Cl)c(F)c2)c2ccc(C(=O)N3CCC4(CCNC4=O)CC3)nc21` [Example 75, 8-(1-(4-chloro-3-fluorophenyl)-3,3-dimethyl-2,3-dihydro-1H-pyrrolo[3,2-b]pyridine-5-carbonyl)-2,8-diazaspiro[4.5]decan-1-one]: 500 to 10000 nM; `CC1(C)CN(C(=O)c2ccc3c(n2)C2(CCCC2)CN3c2ccc(Cl)c(F)c2)CCC1C(=O)O` (stereo not drawn) [Example 6, 1-(1′-(4-chloro-3-fluorophenyl)-1′,2′-dihydrospiro[cyclopentane-1,3′-pyrrolo[3,2-b]pyridine]-5′-carbonyl)-3,3-dimethylpiperidine-4-carboxylic acid]: 500 to 10000 nM. The value for `CC1(C)CN(c2ccc(Cl)c(F)c2)c2ccc(C(=O)N3CCNCC3(C)C)nc21` [Example 22, (1-(4-chloro-3-fluorophenyl)-3,3-dimethyl-2,3-dihydro-1H-pyrrolo[3,2-b]pyridin-5-yl)(2,2-dimethylpiperazin-1-yl)methanone hydrochloride] was 500 to 10000 nM; that for `CC1(C)CN(c2ccsc2)c2ccc(C(=O)N3CCNC(=O)C3(C)C)nc21` [Example 11, 4-(3,3-dimethyl-1-(thiophen-3-yl)-2,3-dihydro-1H-pyrrolo[3,2-b]pyridine-5-carbonyl)-3,3-dimethylpiperazin-2-one] was 500 to 10000 nM. The value for `Cc1cc(N2CCN(C(=O)c3cnc4c(n3)C(C)(C)CN4c3ccc(Cl)c(F)c3)C(C)(C)C2)c(C(=O)O)c(C)n1` [Example 263, 4-(4-(5-(4-chloro-3-fluorophenyl)-7,7-dimethyl-6,7-dihydro-5H-pyrrolo[2,3-b]pyrazine-2-carbonyl)-3,3-dimethylpiperazin-1-yl)-2,6-dimethylnicotinic acid] was above 10000 nM. On to `CC1(C)CN(c2cc(F)c(Cl)c(F)c2)c2ncc(C(=O)N3CCN(c4ccc(CC(=O)O)cn4)CC3(C)C)nc21` [Example 241, 2-(6-(4-(5-(4-chloro-3,5-difluorophenyl)-7,7-dimethyl-6,7-dihydro-5H-pyrrolo[2,3-b]pyrazine-2-carbonyl)-3,3-dimethylpiperazin-1-yl)pyridin-3-yl)acetic acid], for which the IC50 was below 500 nM.

With `CC1(C)CN(c2ccc(Cl)c(F)c2)c2cc(O)c(C(=O)N3CCN(c4ccc(CC(=O)O)cn4)CC3(C)C)nc21` [Example 258, 2-(6-(4-(1-(4-chloro-3-fluorophenyl)-6-hydroxy-3,3-dimethyl-2,3-dihydro-1H-pyrrolo[3,2-b]pyridine-5-carbonyl)-3,3-dimethylpiperazin-1-yl)pyridin-3-yl)acetic acid], the half-maximal inhibitory concentration (IC50) was 500 to 10000 nM. The value for `CC1(C)CN(c2ccc(CC(=O)O)cn2)CCN1C(=O)c1cnc2c(n1)C1(CCCC1)CN2c1ccc(Cl)c(F)c1` [Example 243, 2-(6-(4-(5′-(4-chloro-3-fluorophenyl)-5′,6′-dihydrospiro[cyclopentane-1,7′-pyrrolo[2,3-b]pyrazine]-2′-carbonyl)-3,3-dimethylpiperazin-1-yl)pyridin-3-yl)acetic acid] was below 500 nM. Next, `Cc1cc(N2CCN(C(=O)c3cnc4c(n3)C(C)(C)CN4c3ccc(F)c(F)c3)C(C)(C)C2)nc(C)c1C(=O)O` [Example 181, 6-(4-(5-(3,4-difluorophenyl)-7,7-dimethyl-6,7-dihydro-5H-pyrrolo[2,3-b]pyrazine-2-carbonyl)-3,3-dimethylpiperazin-1-yl)-2,4-dimethylnicotinic acid]: below 500 nM. Consider `Cc1ccc(N2CC(C)(C)c3nc(C(=O)N4CCN(c5cc(C)c(C(=O)O)c(C)n5)CC4(C)C)ccc32)cc1F` [Example 85, 6-(4-(1-(3-fluoro-4-methylphenyl)-3,3-dimethyl-2,3-dihydro-1H-pyrrolo[3,2-b]pyridine-5-carbonyl)-3,3-dimethylpiperazin-1-yl)-2,4-dimethylnicotinic acid], for which the concentration for half-maximal inhibition (IC50) was below 500 nM. For `CC1(C)C(=O)NCCN1C(=O)c1ccc2c(n1)C1(CCOCC1)C(=O)N2c1ccc(Cl)c(F)c1` [Example 1, 1′-(4-chloro-3-fluorophenyl)-5′-(2,2-dimethyl-3-oxopiperazine-1-carbonyl)-2,3,5,6-tetrahydrospiro[pyran-4,3′-pyrrolo[3,2-b]pyridin]-2′(1′H)-one], the IC50 lay in the range of 500 to 10000 nM. Consider `CC(C)(O)CNC(=O)c1ccc2c(n1)C(C)(C)CN2c1ccc(Cl)c(F)c1` [Example 52, 1-(4-chloro-3-fluorophenyl)-N-(2-hydroxy-2-methylpropyl)-3,3-dimethyl-2,3-dihydro-1H-pyrrolo[3,2-b]pyridine-5-carboxamide], for which the concentration for half-maximal inhibition (IC50) was above 10000 nM.

In the case of `CC1(C)CN(c2ccc(F)c(Cl)c2)c2ncc(C(=O)N3CCN(c4ccc(CC(=O)O)cn4)CC3(C)C)nc21` [Example 205, 2-(6-(4-(5-(3-chloro-4-fluorophenyl)-7,7-dimethyl-6,7-dihydro-5H-pyrrolo[2,3-b]pyrazine-2-carbonyl)-3,3-dimethylpiperazin-1-yl)pyridin-3-yl)acetic acid], the IC50 is below 500 nM. Take `CC1(C)CN(c2ccc(Cl)c(F)c2)c2ccc(C(=O)N3[C@@H]4CC[C@H]3CC(CC(=O)O)C4)nc21` (mixture of isomers) [Example 130, 2-((1R,5S)-8-(1-(4-chloro-3-fluorophenyl)-3,3-dimethyl-2,3-dihydro-1H-pyrrolo[3,2-b]pyridine-5-carbonyl)-8-azabicyclo[3.2.1]octan-3-yl)acetic acid]: the IC50 was 500 to 10000 nM. Next, `CC1(C)CN(c2ccc(Cl)c(F)c2)c2ccc(C(=O)N3CCC4(CC3)CNC(=O)O4)nc21` [Example 121, 8-(1-(4-chloro-3-fluorophenyl)-3,3-dimethyl-2,3-dihydro-1H-pyrrolo[3,2-b]pyridine-5-carbonyl)-1-oxa-3,8-diazaspiro[4.5]decan-2-one]: 500 to 10000 nM. As to `Cc1ccc(N2CC(C)(C)c3nc(C(=O)N4CCN(c5ccc(CC(=O)O)cn5)CC4(C)C)cnc32)cc1F` [Example 203, 2-(6-(4-(5-(3-fluoro-4-methylphenyl)-7,7-dimethyl-6,7-dihydro-5H-pyrrolo[2,3-b]pyrazine-2-carbonyl)-3,3-dimethylpiperazin-1-yl)pyridin-3-yl)acetic acid], the concentration for half-maximal inhibition (IC50) is below 500 nM. Turning to `CC1(C)CN(c2ccc(Cl)c(F)c2)c2ncc(C(=O)N3CCN(c4ccc(CC(=O)O)cn4)CC3(C)C)nc21` [Example 173, 2-(6-(4-(5-(4-chloro-3-fluorophenyl)-7,7-dimethyl-6,7-dihydro-5H-pyrrolo[2,3-b]pyrazine-2-carbonyl)-3,3-dimethylpiperazin-1-yl)pyridin-3-yl)acetic acid], the IC50 was below 500 nM. Next, `CC1(C)CC2(CN(c3ccc(Cl)c(F)c3)c3ncc(S(=O)(=O)N4CCC(N5CCNC5=O)CC4)nc32)C1` [Example 266, 1-(1-((5′-(4-chloro-3-fluorophenyl)-3,3-dimethyl-5′,6′-dihydrospiro[cyclobutane-1,7′-pyrrolo[2,3-b]pyrazin]-2′-yl)sulfonyl)piperidin-4-yl)imidazolidin-2-one]: above 10000 nM; `CC1(C)CN(c2ccc(CC(=O)O)cn2)CCN1C(=O)c1ccc2c(n1)C1(CN2c2ccc(Cl)c(F)c2)CC(F)(F)C1` [Example 128, 2-(6-(4-(1′-(4-chloro-3-fluorophenyl)-3,3-difluoro-1′,2′-dihydrospiro[cyclobutane-1,3′-pyrrolo[3,2-b]pyridine]-5′-carbonyl)-3,3-dimethylpiperazin-1-yl)pyridin-3-yl)acetic acid]: below 500 nM; `Cc1cc(C)nc(N2CCN(C(=O)c3ccc4c(n3)C(C)(C)CN4C3CCC(C#N)CC3)C(C)(C)C2)c1` (stereo not drawn) [Example 165, 4-(5-(4-(4,6-dimethylpyridin-2-yl)-2,2-dimethylpiperazine-1-carbonyl)-3,3-dimethyl-2,3-dihydro-1H-pyrrolo[3,2-b]pyridin-1-yl)cyclohexane-1-carbonitrile]: 500 to 10000 nM. On to `CC1(C)CCN(c2ccc(Cl)c(F)c2)c2ccc(C(=O)N3CCN(c4ccc(CC(=O)O)cn4)CC3(C)C)nc21` [Example 177, 2-(6-(4-(5-(4-chloro-3-fluorophenyl)-8,8-dimethyl-5,6,7,8-tetrahydro-1,5-naphthyridine-2-carbonyl)-3,3-dimethylpiperazin-1-yl)pyridin-3-yl)acetic acid], for which the half-maximal inhibitory concentration (IC50) is below 500 nM. In the case of `CC1(C)CN(c2ccc(CC(=O)O)cn2)CCN1C(=O)c1cnc2c(n1)C1(CCCC1)CN2c1ccc(F)c(F)c1` [Example 229, 2-(6-(4-(5′-(3,4-difluorophenyl)-5′,6′-dihydrospiro[cyclopentane-1,7′-pyrrolo[2,3-b]pyrazine]-2′-carbonyl)-3,3-dimethylpiperazin-1-yl)pyridin-3-yl)acetic acid], the IC50 was below 500 nM.

As for `Cc1cc(N2CCN(C(=O)c3cnc4c(n3)C(C)(C)CN4c3cc(F)c(Cl)c(F)c3)C(C)(C)C2)nc(C)c1C(=O)O` [Example 187, 6-(4-(5-(4-chloro-3,5-difluorophenyl)-7,7-dimethyl-6,7-dihydro-5H-pyrrolo[2,3-b]pyrazine-2-carbonyl)-3,3-dimethylpiperazin-1-yl)-2,4-dimethylnicotinic acid], the 50% inhibitory concentration (IC50) was below 500 nM.
